# Paper PMC9090415, “Discovery of small molecule inhibitors of Plasmodium falciparum apicoplast DNA polymerase” (Journal of Enzyme Inhibition and Medicinal Chemistry, 2022)
# Molecular target: P. falciparum apicoplast DNA polymerase (Pf-apPOL) (Plasmodium falciparum, UniProt Q8ILY1)
# Experiment: Fluorescence-based high-throughput DNA polymerase assay (molecular beacon), primary screen and dose-response;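 on % inhibition ApPOL 90': test concentration in µM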;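 on % inhibition apPOL 180': test concentration in µM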
# Assay type: biochemical
# Summary of the method: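 Single-point screening used 10 µM compound with 20 nM polymerase, 20 nM hairpin substrate and 6 µM dNTPs for 90 min at 25 °C. Confirmatory titrations (2.5–80 µM) followed fluorescence at three times, and IC50 was derived from a fit including a cooperativity term n.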
# [1] = supplemental file 2, sheet IC50 nontoxic compounds; Pf-apPOL
# Sequence of P. falciparum apicoplast DNA polymerase (Pf-apPOL) (Q8ILY1 entry or part of it): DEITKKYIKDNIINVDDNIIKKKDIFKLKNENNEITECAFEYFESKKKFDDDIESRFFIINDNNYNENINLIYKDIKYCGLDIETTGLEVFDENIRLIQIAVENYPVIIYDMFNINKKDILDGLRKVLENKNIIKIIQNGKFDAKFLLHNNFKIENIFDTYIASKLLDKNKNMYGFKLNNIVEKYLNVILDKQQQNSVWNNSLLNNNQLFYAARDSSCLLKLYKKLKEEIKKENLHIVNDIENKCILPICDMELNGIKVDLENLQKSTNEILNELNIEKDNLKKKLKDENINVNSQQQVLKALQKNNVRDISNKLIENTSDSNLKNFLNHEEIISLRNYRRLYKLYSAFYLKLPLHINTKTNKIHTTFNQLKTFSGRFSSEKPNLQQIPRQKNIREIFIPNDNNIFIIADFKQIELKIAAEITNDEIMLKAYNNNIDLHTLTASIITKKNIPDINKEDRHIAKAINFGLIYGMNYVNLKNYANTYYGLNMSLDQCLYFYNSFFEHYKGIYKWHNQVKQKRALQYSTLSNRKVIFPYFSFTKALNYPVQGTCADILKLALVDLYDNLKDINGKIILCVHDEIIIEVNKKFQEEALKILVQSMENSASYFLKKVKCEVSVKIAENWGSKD
compound,measurement,setting,value
C=CCOc1c(Br)cc(Br)cc1/C=C1\SC(=N)NC1=O [KU0051640],DNA Pol,"'DNA Pol' of the 186 hits list (screen value); 90 min, 10 µM",26
same,% inhibition Apo pol 10',DRC-1; 10'; conc 2.5,4.163%
same,% inhibition Apo pol 10',DRC-1; 10'; conc 5,-1.099%
same,% inhibition Apo pol 10',DRC-1; 10'; conc 10,11.4088%
same,% inhibition Apo pol 10',DRC-1; 10'; conc 20,46.0852%
same,% inhibition Apo pol 10',DRC-1; 10'; conc 40,88.1194%
same,% inhibition Apo pol 10',DRC-1; 10'; conc 80,94.2659%
same,% inhibition Apol 90',DRC-1; 90'; conc 2.5,2.139%
same,% inhibition Apol 90',DRC-1; 90'; conc 5,-4.076%
same,% inhibition Apol 90',DRC-1; 90'; conc 10,7.3276%
same,% inhibition Apol 90',DRC-1; 90'; conc 20,38.2187%
same,% inhibition Apol 90',DRC-1; 90'; conc 40,86.7215%
same,% inhibition Apol 90',DRC-1; 90'; conc 80,95.0722%
same,% inhibition apPOL 180',DRC-1; 180'; conc 2.5,-0.2194%
same,% inhibition apPOL 180',DRC-1; 180'; conc 5,-7.333%
same,% inhibition apPOL 180',DRC-1; 180'; conc 10,0.9345%
same,% inhibition apPOL 180',DRC-1; 180'; conc 20,26.8822%
same,% inhibition apPOL 180',DRC-1; 180'; conc 40,86.6627%
same,% inhibition apPOL 180',DRC-1; 180'; conc 80,95.6515%
same,% inhibition Apo pol 5',DRC-2; 5'; conc 2.5,11%
same,% inhibition Apo pol 5',DRC-2; 5'; conc 5,7%
same,% inhibition Apo pol 5',DRC-2; 5'; conc 10,20%
same,% inhibition Apo pol 5',DRC-2; 5'; conc 20,43%
same,% inhibition Apo pol 5',DRC-2; 5'; conc 40,54%
same,% inhibition Apo pol 5',DRC-2; 5'; conc 80,54%
same,% inhibition Apo pol 5',DRC-2; 5'; concentration 5,7%
same,% inhibition Apo pol 5',DRC-2; 5'; concentration 40,54%
same,% inhibition Apo pol 5',DRC-2; 5'; concentration 80,54%
same,% inhibition Apol 40',DRC-2; 40'; conc 2.5,12%
same,% inhibition Apol 40',DRC-2; 40'; conc 5,7%
same,% inhibition Apol 40',DRC-2; 40'; conc 10,24%
same,% inhibition Apol 40',DRC-2; 40'; conc 20,54%
same,% inhibition Apol 40',DRC-2; 40'; conc 40,72%
same,% inhibition Apol 40',DRC-2; 40'; conc 80,75%
same,% inhibition Apol 40',DRC-2; 40'; concentration 2.5,12%
same,% inhibition Apol 40',DRC-2; 40'; concentration 5,7%
same,% inhibition Apol 40',DRC-2; 40'; concentration 20,54%
same,% inhibition ApPOL 90',DRC-2; 90'; conc 2.5,12%
same,% inhibition ApPOL 90',DRC-2; 90'; conc 5,6.55%
same,% inhibition ApPOL 90',DRC-2; 90'; conc 10,23%
same,% inhibition ApPOL 90',DRC-2; 90'; conc 20,56%
same,% inhibition ApPOL 90',DRC-2; 90'; conc 40,76%
same,% inhibition ApPOL 90',DRC-2; 90'; conc 80,79%
same,% inhibition ApPOL 90',DRC-2; 90'; concentration 2.5,12%
same,% inhibition ApPOL 90',DRC-2; 90'; concentration 40,76%
same,% inhibition apPOL 180',DRC-2; 180'; conc 2.5,9%
same,% inhibition apPOL 180',DRC-2; 180'; conc 5,4%
same,% inhibition apPOL 180',DRC-2; 180'; conc 10,17%
same,% inhibition apPOL 180',DRC-2; 180'; conc 20,49%
same,% inhibition apPOL 180',DRC-2; 180'; conc 40,76%
same,% inhibition apPOL 180',DRC-2; 180'; conc 80,81%
same,% inhibition apPOL 180',DRC-2; 180'; concentration 40,76%
same,DNA Pol,"primary screen value, ""DNA Pol""; 90 min, 10 µM",26
"CCN1C(=O)C(=Cc2cccc(OC)c2O)SC1=S [Molecule 78, CCN1C(=S)SC(=Cc2cccc(c2O)OC)C1=O]",% inhibition Apo pol 10',DRC-1; 10'; concentration 2.5,-5.558%
same,% inhibition Apo pol 10',DRC-1; 10'; concentration 5,-7.622%
same,% inhibition Apo pol 10',DRC-1; 10'; concentration 10,-2.049%
same,% inhibition Apo pol 10',DRC-1; 10'; concentration 20,2.662%
same,% inhibition Apo pol 10',DRC-1; 10'; concentration 40,14.6723%
same,% inhibition Apo pol 10',DRC-1; 10'; concentration 80,44.8696%
same,% inhibition Apol 90',DRC-1; 90'; concentration 2.5,-2.637%
same,% inhibition Apol 90',DRC-1; 90'; concentration 5,-1.279%
same,% inhibition Apol 90',DRC-1; 90'; concentration 10,7.892%
same,% inhibition Apol 90',DRC-1; 90'; concentration 20,13.9946%
same,% inhibition Apol 90',DRC-1; 90'; concentration 40,28.6027%
same,% inhibition Apol 90',DRC-1; 90'; concentration 80,61.7186%
same,% inhibition apPOL 180',DRC-1; 180'; concentration 2.5,5.183%
same,% inhibition apPOL 180',DRC-1; 180'; concentration 5,11.9919%
same,% inhibition apPOL 180',DRC-1; 180'; concentration 10,27.7441%
same,% inhibition apPOL 180',DRC-1; 180'; concentration 20,33.831%
same,% inhibition apPOL 180',DRC-1; 180'; concentration 40,51.4318%
same,% inhibition apPOL 180',DRC-1; 180'; concentration 80,79.6969%
same,% inhibition Apo pol 5',"DRC-2, 5', concentration 2.5 (unit not given)",8%
same,% inhibition ApPOL 90',"DRC-2, 90', concentration 20 (unit not given)",8%
same,% inhibition Apo pol 5',DRC-2; 5'; concentration 2.5,8%
same,% inhibition Apo pol 5',DRC-2; 5'; concentration 5,3.24%
same,% inhibition Apo pol 5',DRC-2; 5'; concentration 10,14%
same,% inhibition Apo pol 5',DRC-2; 5'; concentration 20,21%
same,% inhibition Apo pol 5',DRC-2; 5'; concentration 40,38%
same,% inhibition Apo pol 5',DRC-2; 5'; concentration 80,40%
same,% inhibition Apol 40',DRC-2; 40'; concentration 2.5,2.6%
same,% inhibition Apol 40',DRC-2; 40'; concentration 5,-11%
same,% inhibition Apol 40',DRC-2; 40'; concentration 10,9%
same,% inhibition Apol 40',DRC-2; 40'; concentration 20,12%
same,% inhibition Apol 40',DRC-2; 40'; concentration 40,39%
same,% inhibition Apol 40',DRC-2; 40'; concentration 80,41%
same,% inhibition ApPOL 90',DRC-2; 90'; concentration 2.5,-1.1%
same,% inhibition ApPOL 90',DRC-2; 90'; concentration 5,-22%
same,% inhibition ApPOL 90',DRC-2; 90'; concentration 10,5.68%
same,% inhibition ApPOL 90',DRC-2; 90'; concentration 20,8%
same,% inhibition ApPOL 90',DRC-2; 90'; concentration 40,35%
same,% inhibition ApPOL 90',DRC-2; 90'; concentration 80,36%
same,% inhibition apPOL 180',DRC-2; 180'; concentration 2.5,-5.52%
same,% inhibition apPOL 180',DRC-2; 180'; concentration 5,-102%
same,% inhibition apPOL 180',DRC-2; 180'; concentration 10,-2.72%
same,% inhibition apPOL 180',DRC-2; 180'; concentration 20,-1.34%
same,% inhibition apPOL 180',DRC-2; 180'; concentration 40,23%
same,% inhibition apPOL 180',DRC-2; 180'; concentration 80,25%
same,DNA Pol,"primary screen value of the 186 hits; unit not given; 90 min, 10 µM",43
same,DNA Pol,"primary screen value, head ""DNA Pol"", unit not given; 90 min, 10 µM",43
CCOc1ccc(/C=C2\N=C(c3cc([N+](=O)[O-])cc([N+](=O)[O-])c3)OC2=O)cc1 [Molecule 97],IC50,[1],4.47 µM
CSC1=C(C#N)C(=C(C#N)C#N)NC(c2ccccc2)=N1 [Molecule 2],IC50,[1],5.66 µM
O=[N+]([O-])c1cc2c(cc1CN1CCCCCC1)OCO2 [KU0004987],DNA Pol,"'DNA Pol'; screening value, unit not given; 90 min, 10 µM",33
same,% inhibition Apo pol 10',DRC-1; 10'; concentration 2.5,6.817%
same,% inhibition Apo pol 10',DRC-1; 10'; concentration 5,8.194%
same,% inhibition Apo pol 10',DRC-1; 10'; concentration 10,20.8655%
same,% inhibition Apo pol 10',DRC-1; 10'; concentration 20,39.2503%
same,% inhibition Apo pol 10',DRC-1; 10'; concentration 40,59.1088%
same,% inhibition Apo pol 10',DRC-1; 10'; concentration 80,75.1762%
same,% inhibition Apol 90',DRC-1; 90'; concentration 2.5,1.395%
same,% inhibition Apol 90',DRC-1; 90'; concentration 5,-0.8625%
same,% inhibition Apol 90',DRC-1; 90'; concentration 10,9.436%
same,% inhibition Apol 90',DRC-1; 90'; concentration 20,21.3205%
same,% inhibition Apol 90',DRC-1; 90'; concentration 40,39.3126%
same,% inhibition Apol 90',DRC-1; 90'; concentration 80,55.7488%
same,% inhibition apPOL 180',DRC-1; 180'; concentration 2.5,-4.392%
same,% inhibition apPOL 180',DRC-1; 180'; concentration 5,-7.266%
same,% inhibition apPOL 180',DRC-1; 180'; concentration 10,1.794%
same,% inhibition apPOL 180',DRC-1; 180'; concentration 20,10.6731%
same,% inhibition apPOL 180',DRC-1; 180'; concentration 40,27.0699%
same,% inhibition apPOL 180',DRC-1; 180'; concentration 80,43.7361%
same,% inhibition Apo pol 5',"DRC-2, 5', concentration 2.5",17%
same,% inhibition Apo pol 5',"DRC-2, 5', concentration 5",20%
same,% inhibition Apo pol 5',"DRC-2, 5', concentration 10",32%
same,% inhibition Apo pol 5',"DRC-2, 5', concentration 20",39%
same,% inhibition Apo pol 5',"DRC-2, 5', concentration 40",46%
same,% inhibition Apo pol 5',"DRC-2, 5', concentration 80",49%
same,% inhibition Apol 40',"DRC-2, 40', concentration 2.5",13%
same,% inhibition Apol 40',"DRC-2, 40', concentration 5",15%
same,% inhibition Apol 40',"DRC-2, 40', concentration 10",22%
same,% inhibition Apol 40',"DRC-2, 40', concentration 20",29%
same,% inhibition Apol 40',"DRC-2, 40', concentration 40",39%
same,% inhibition Apol 40',"DRC-2, 40', concentration 80",49%
same,% inhibition ApPOL 90',"DRC-2, 90', concentration 2.5",9%
same,% inhibition ApPOL 90',"DRC-2, 90', concentration 5",9%
same,% inhibition ApPOL 90',"DRC-2, 90', concentration 10",16%
same,% inhibition ApPOL 90',"DRC-2, 90', concentration 20",23%
same,% inhibition ApPOL 90',"DRC-2, 90', concentration 40",33%
same,% inhibition ApPOL 90',"DRC-2, 90', concentration 80",45%
same,% inhibition apPOL 180',"DRC-2, 180', concentration 2.5",0.644%
same,% inhibition apPOL 180',"DRC-2, 180', concentration 5",0.589%
same,% inhibition apPOL 180',"DRC-2, 180', concentration 10",6%
same,% inhibition apPOL 180',"DRC-2, 180', concentration 20",10%
same,% inhibition apPOL 180',"DRC-2, 180', concentration 40",22%
same,% inhibition apPOL 180',"DRC-2, 180', concentration 80",36%
same,% inhibition ApPOL 90',conc 2.5 (unit not given); 90'; DRC-2,9%
same,% inhibition ApPOL 90',conc 5 (unit not given); 90'; DRC-2,9%
same,% inhibition Apol 40',conc 10 (unit not given); 40'; DRC-2,22%
same,% inhibition Apo pol 5',conc 20 (unit not given); 5'; DRC-2,39%
same,% inhibition Apol 40',conc 40 (unit not given); 40'; DRC-2,39%
same,% inhibition apPOL 180',conc 40 (unit not given); 180'; DRC-2,22%
same,% inhibition Apo pol 5',conc 80 (unit not given); 5'; DRC-2,49%
same,% inhibition Apol 40',conc 80 (unit not given); 40'; DRC-2,49%
same,DNA Pol,"primary screen hit value, DNA Pol (186 hits); 90 min, 10 µM",33
Cc1cccc2c(C(=O)NC(C)C)cc(N(C)C)nc12 [Molecule 47],IC50,[1],15.9 µM
